# Test results as given in patent US10682360B2, “Antimicrobial formulations and applications thereof” (priority 2014, dated 2020).
# Tests used:
# [1] = system: Staphylococcus aureus 33592 (MRSA); assay: ASTM E2315 suspension time-kill procedure; assay type: cell-based; settings: contact time 2 hours; for CFU/mL / % Reduction / Log10 reduction: S. aureus 33592; for % Reduction / Log10 reduction: vs time zero control
# Protocol: (§1) Efficacy of these substances, alone and in combination, was tested against two strains of bacteria using the ASTM E2315 test method.
# (2) Staphylococcus aureus 33592 (MRSA): This is a Gram-positive, coccus-shaped aerobe that is resistant to methicillin, a penicillin derivative. Rapid reproduction and resistance to antibiotics can make S. aureus infections particularly difficult to treat. MRSA bacteria are resistant to drying and can survive on surfaces and fabrics for an extended period of time.
# (§2) ASTM E2315 is a quantitative test method designed to assess changes in the populations of a microorganism in an antimicrobial liquid suspension. The method can be conducted using contact times ranging from 10 seconds to 24 hours. The test method uses non-antimicrobial agents as controls to establish baselines for microbial reductions.
# (§3) Test microorganisms were prepared in liquid culture medium. Suspensions of test microorganisms were standardized as needed by dilution in a buffered saline solution. Test and control substances were dispensed in identical volumes to sterile vessels.
# (§4) Independently, test and control substances were inoculated with each test microorganism, then mixed and incubated. Control substances were immediately harvested and used to represent the concentration present at the start of the test.
# (§5) At the conclusion of the contact time, a volume of liquid test solution was harvested and chemically neutralized. Test microorganisms were spun down and the cell pellet was resuspended in phosphate buffered saline (PBS) prior to inoculation of the test systems. 10 mL volumes of Dey/Engley neutralizer broth supplemented with 5% magnesium chloride and 35% polysorbate 80 were used for chemical neutralization. After chemical neutralization, test systems were filtered using a filtration manifold to recover surviving microorganisms.
# (§6) Dilutions of neutralized test solution were assayed using appropriate growth media to determine surviving microorganism levels at each respective contact time. Reductions of microorganisms were calculated by comparing initial microbial concentrations to final microbial concentrations. The limit of detection for the assay was 10 CFU/mL.
# (§7) Percent reduction of bacterial population was calculated according to the following equation, where A=number of viable test microorganisms in the test substance after the contact time and B=number of viable test microorganisms in the control substance immediately after inoculation. Log10 reduction was also calculated.
# (§8) The experimental procedure of Example 1 was followed with the exception of substitutions of some antibiotics. Cefuroxime (a second generation cephalosporin) and/or ceftazidime (a third generation cephalosporin active against P. aeruginosa) were used to replace cefazolin.
# [2] = system: Pseudomonas aeruginosa 9027; assay: ASTM E2315 suspension time-kill procedure; assay type: cell-based; settings: P. aeruginosa 9027, contact time 2 hours; for % Reduction / Log10 reduction: vs time zero control
# Protocol: as §1
# (1) Pseudomonas aeruginosa 9027: This is a Gram-negative, rod-shaped microorganism with a single flagellum. P. aeruginosa grows optimally under aerobic conditions but can use various electron acceptors to respire anaerobically as needed. This organism is an opportunistic pathogen with the ability to form resilient biofilms in human tissues under anaerobic conditions.
# as §2, §3, §4, §5, §6, §7, §8
# [3] = Example 2, time zero control 3.35 × 10^7 CFU/mL
molecule,measurement,setting,value
"Cc1nnc(SCC2=C(C(=O)O)N3C(=O)[C@@H](NC(=O)Cn4cnnn4)[C@H]3SC2)s1 [Test 1, Cefazolin]",CFU/mL,"[1]; Example 1, time zero control 2.85 × 10^6 CFU/mL, ambient 25° C.",1.44 × 10^5 CFU/mL
same,% Reduction,[1]; Example 1,94.96%
same,Log10 reduction,[1]; Example 1,1.30
"CO/N=C(\C(=O)N[C@@H]1C(=O)N2C(C(=O)O)=C(COC(N)=O)CS[C@H]12)c1ccco1 [Test 12, Cefuroxime]",CFU/mL,[2]; [3],2.00 × 10^5 CFU/mL
same,% Reduction,[2]; Example 2,99.44%
same,Log10 reduction,[2]; Example 2,2.25
same,"antibacterial effect / interaction of the antibiotics, in words",[2],bactericidal
Polymyxin B [Test 11],CFU/mL,[2]; [3],1.00 × 10^3 CFU/mL
same,% Reduction,[2]; Example 2,99.997%
same,Log10 reduction,[2]; Example 2,4.55
Polymyxin B [Test 5],CFU/mL,"[2]; Example 1, time zero control 1.80 × 10^6 CFU/mL, limit of detection 10 CFU/mL",<1.00 × 10^1 CFU/mL
same,% Reduction,[2]; Example 1,>99.9996%
same,Log10 reduction,[2]; Example 1,>5.45
same,"antibacterial effect / interaction of the antibiotics, in words",[2],essentially complete elimination
"CO/N=C(\C(=O)N[C@@H]1C(=O)N2C(C(=O)O)=C(COC(N)=O)CS[C@H]12)c1ccco1 [Test 8, Cefuroxime]",CFU/mL,"[1]; Example 2, time zero control 1.75 × 10^6 CFU/mL",1.50 × 10^6 CFU/mL
same,% Reduction,[1]; Example 2,14.29%
same,Log10 reduction,[1]; Example 2,0.07
same,"antibacterial effect / interaction of the antibiotics, in words",[1]; S. aureus 33592 (MRSA),"less activity against MRSA than the first generation cephalosporin, cefazolin"
